From patent publication US20240207266A1, “METHODS FOR TREATING AND MONITORING PARKINSON'S DISEASE” (Denali Therapeutics Inc., priority 2021, published 2024) come the findings set out here.

A short description of series [1]: CSF penetration, CSF/unbound plasma ratio (Phase 1/1b). It counts as in vivo, human.
A short description of series [2]: Phase 1 first-in-human study, safety and tolerability, multiple-dose cohorts (Parts B, D, E). The class given is in vivo. Here is the method: This double-blind, placebo-controlled Phase 1 study comprised single-ascending dose (SAD) and 10-day, 14-day, and 28-day multiple-ascending dose (MAD) parts in healthy volunteers. BID=twice daily; PBO=placebo; QD=once daily.
In a separate analysis of ≥1 TEAE in ≥2 subjects per treatment arm included the following additional TEAEs not listed above: ear pain (n=2; 105 mg QD 10-day cohort); nasopharyngitis (n=2; 225 mg QD 28-day cohort); asymptomatic COVID-19 (n=2; 400 mg BID 14-day cohort); somnolence (n=2; 250 mg BID 14-day cohort). 2 subjects also experienced presyncope associated with lumbar puncture (one each for 150 and 225 mg QD 28-day cohort).
In the Phase 1 study in healthy volunteers, the demographics of participants was as follows: • 184 HVs (145 active, 39 placebo) were treated with single or multiple once daily (QD) or twice daily (BID) doses up to 28 days in the following study Parts: • Part A (SAD; young HVs; n=48): 100% male and median age of 25 (range, 18-50) years; • Part B (10-day MAD; young HVs; n=80): 99% male and median age of 26.5 (range, 18-50) years; • Part C (SAD: elderly HVs; n=8): 50% male and median age of 69 (range, 67-74) years; • Part D (28-day MAD; young HVs; n=17): 100% male and median age of 29 (range, 18-39) years; and • E (14-day MAD: young HVs: n=31): 100% male and median age 30 (range 18-50) years.
This was a Phase 1, randomized, placebo-controlled, double-blind FIH study designed to determine the safety, tolerability. PK, and pharmacodynamics of compound I in healthy subjects.
Part B of this study was composed of sequential multiple ascending dose (MAD) cohorts. Healthy subjects were enrolled in 8 cohorts (Cohorts B1-B8; n=10/cohort) and were administered compound I 15, 30, 45, 70, 105, 150, 225, or 300 mg or placebo (4:1 ratio) QD for 10 days.
Part D was composed of a multiple-dose cohort (Cohort D1) of healthy subjects administered either compound I 225 mg (n=13) or placebo (n=4) QD for 28 days.
Part E is composed of sequential MAD cohorts. Healthy subjects in Cohort E1 were administered compound I 150 mg or placebo BID (4:1 ratio) for 14 days (n=9) and subjects in Cohort E2 were administered compound I 250 mg or placebo BID (4:1 ratio) for 14 days (n=11). Subjects in the ongoing Cohort E3 are being administered […] or placebo BID (4:1 ratio) for 14 days.

Test in series [3]: as above
The class given is in vivo. The conditions noted are these: Part E, healthy subjects; procedural headache (250 mg BID), headache and malaise (40 mg BID).

Setting [4] is: Part B, healthy subjects, 15-300 mg QD for 10 days.
Where [5] appears, read: Part D, healthy subjects, 225 mg QD for 28 days.
Where [6] appears, read: Part E, healthy subjects, BID for 14 days.

With `CCNc1nc(Nc2cc(C(C)(C)n3nccn3)nn2C2CC2)ncc1C(F)(F)F` [compound I, N2-(3-(2-(2H-1,2,3-triazol-2-yl)propan-2-yl)-1-cyclopropyl-1H-pyrazol-5-yl)-N4-ethyl-5-(trifluoromethyl)pyrimidine-2,4-diamine], the “CSF penetration based on the CSF/unbound plasma ratio” value in series [1] is reported as “high CSF penetration”. Also, the “presyncope associated with lumbar puncture” value in series [2] (FIG. 9 legend, one each for 150 and 225 mg QD 28-day cohort) came out at 2 subjects. In series [2] (setting [4]), the “changes in safety laboratory, vital signs, ECG, neurological examination, PFT or C-SSRS results” value is on record as “No clinically significant changes”; the “deaths, other SAEs, AESIs or TEAEs leading to study drug discontinuation” value is “No deaths, other SAEs (serious adverse events), AESIs (adverse events of special interests), or treatment-emergent adverse events (TEAEs) leading to study drug discontinuation were reported”; the “subjects who experienced a severe TEAE” value is reported as “no subjects”; the “subjects who experienced ≥1 TEAE” value was 56 (86.2%) subjects (%). Further, in series [2] (setting [4]), the “subjects who experienced ≥1 mild TEAE” value is reported as 55 (84.6%) subjects (%) and the “subjects who experienced ≥1 moderate TEAE” value is 9 (13.8%) subjects (%). In addition, the tolerability result in series [2] (Part B, healthy subjects, multiple doses up to 300 mg QD for 10 days) was “generally well tolerated”. In addition, in series [2] (setting [5]), the “changes in safety laboratory, vital sign, ECG, neurological examination, PFT or C-SSRS results” value was “No other clinically significant changes”; the “deaths, other SAEs or AESIs” value is “No deaths, other SAEs, or AESIs were reported”; the “subjects who experienced a moderate or severe TEAE” value is reported as “no subjects”; the “subjects who experienced ≥1 TEAE” value is listed as 10 (77%) subjects (%). In series [2] (setting [5]), the “subjects who experienced ≥1 mild TEAE” value is on record as 10 (77%) subjects (%) and the tolerability result is “generally well tolerated”. Also, in series [2] (Part E, Cohorts E1 and E2, healthy subjects, 150 and 250 mg BID for 14 days), the tolerability result is “generally well tolerated”. In addition, the “subjects with moderate TEAEs” value in series [2] (Part E, healthy subjects, 250 mg BID for 14 days) is reported as 2 subjects. Moreover, in series [2] (setting [6]), the “SAEs or AESIs” value is “No SAEs or AESIs were reported”; the “changes in vital sign, ECG, telemetry, safety laboratory (including liver and renal function testing), PFT, neurological examination or C-SSRS results” value was “No clinically significant changes”; the “subjects who experienced 1 TEAE” value was 25 (100.0%) subjects (%). Further, the study-drug related discontinuations result in series [2] (Part E, healthy subjects, one at 250 mg BID, one at 400 mg) is “Two study-drug related discontinuations”. Moreover, the “subjects with severe TEAEs” value in series [3] was “two subjects”.
